In US20040010001A1, “Methods and compositions for modulating cell proliferation and cell death” (priority 1999, published 2004):
Read-outs that look alike come from different tables or passages of the source.

Assays:
Type in all cases: cell-based
Human lung A459 = assay: FGF-induced resistance, inhibition of BrdU incorporation; settings: read-out: Drug concentration needed to produce 50% inhibition
Experimental: (§1) Prior to drug treatment, cells were incubated for 4 days with tumor CM or with r-aFGF ad/or r-bFGF-containing medium, supplemented with 1% FBS (final protein concentration adjusted to 2 mg/ml). The medium was renewed every other day.
(§2) The antiproliferative drug effect in histocultures was measured as inhibition of ^3H-thymidine incorporation quantified by autoradiography (Yen, W. C. et al. (1996) Pharm. Res. 13:1305-1312) and, for monolayers, as inhibition of BrdU incorporation or as reduction of total proteins by the sulforhodamine B assay (Au, J. L.-S. et al. (1998) Cancer Res. 58:2141-2148). For the latter, the two assays yielded qualitatively similar results. Cell kill induced by 96-hour drug treatment was monitored by the release of LDH into the culture medium. LDH activity was monitored by the conversion of tetrazolium to formazan (detected at 490 nm).
(§3) The experimental conditions are described briefly below. Cells were pretreated with human recombinant r-aFGF and/or r-bFGF for 96 hours and then with drugs for 96 hours. For the studies on cells derived from the human prostate, lung, pharynx, colon and breast cancer cells, the drug effect was determined by the inhibition of BrdU incorporation. For the study on the human leukemic cells, the drug effect was measured by the MTT assay, which measures the number of metabolically active cells (Alley, M. C. et al (1988) Cancer Res 48:589-601).

[1] = tested on: Human breast BC19 (subline of MCF7 transfected with mdr1); assay: as above; settings: read-out: Drug concentration needed to produce 50% inhibition
Experimental: as §1, §2, §3

Human breast MCF7 = assay: as above; settings: read-out: Drug concentration needed to produce 50% inhibition
Experimental: as §1, §2, §3

Human colon HT-29 = assay: as above; settings: read-out: Drug concentration needed to produce 50% inhibition
Experimental: as §1, §2, §3

Human pharynx FaDu = assay: as above; settings: read-out: Drug concentration needed to produce 50% inhibition
Experimental: as §1, §2, §3

Human prostate PC3 = assay: as above; settings: Homo sapiens, read-out: Drug concentration needed to produce 50% inhibition
Experimental: as §1, §2, §3

Rat prostate MAT-LyLu = assay: as above; settings: read-out: Drug concentration needed to produce 50% inhibition
Experimental: as §1, §2, §3

[2] = tested on: rat lung metastasis cells, monolayers; assay: Drug effect in monolayers of rat lung metastasis cells (inhibition of bromodeoxyuridine incorporation); settings: 96 h, read-out: Concentration producing 50% inhibition
[3] = tested on: rat lymph node metastasis cells, monolayers; assay: Drug effect in monolayers of rat lymph node metastasis cells (inhibition of bromodeoxyuridine incorporation); settings: 96 h, read-out: Concentration producing 50% inhibition
[4] = tested on: rat primary tumors, histocultures; assay: Drug effect in histocultures of rat primary tumors (inhibition of 3H-thymidine incorporation); settings: Histocultures, Primary, 96 hours, read-out: Concentration producing 50% inhibition
[5] = 96 h, r-aFGF + r-bFGF 0.04 ± 1 ng/ml
[6] = 96 h, r-aFGF + r-bFGF 0.08 ± 1 ng/ml
[7] = 96 h, r-aFGF + r-bFGF 0.32 ± 1 ng/ml
[8] = 96 h, r-aFGF + r-bFGF 0.64 ± 1 ng/ml
[9] = 96 h, r-aFGF + r-bFGF 1 ± 1 ng/ml

- IC50 (Human lung A459; A459, 96 h, r-aFGF + r-bFGF 0 ng/ml): 122 nM
- IC50 (Human lung A459; A459, 96 h, r-aFGF + r-bFGF 0.04 ± 1 ng/ml): 118 nM
- IC50 (Human lung A459; A459, 96 h, r-aFGF + r-bFGF 0.08 ± 1 ng/ml): 159 nM
- IC50 (Human lung A459; A459, 96 h, r-aFGF + r-bFGF 0.16 ± 1 ng/ml): 238 nM
- IC50 (Human lung A459; A459, 96 h, r-aFGF + r-bFGF 0.32 ± 1 ng/ml): 309 nM
- IC50 (Human lung A459; A459, 96 h, r-aFGF + r-bFGF 0.64 ± 1 ng/ml): 386 nM
- IC50 (Human lung A459; A459, 96 h, r-aFGF + r-bFGF 1 ± 1 ng/ml): 582 nM
- IC50 (Human lung A459; A459, r-aFGF 0 ng/ml): 122 nM
- IC50 (Human lung A459; A459, r-aFGF 1 ng/ml): 120 nM
- IC50 (Human lung A459; A459, r-aFGF 10 ng/ml): 123 nM
- IC50 (Human lung A459; A459, r-aFGF 50 ng/ml): 118 nM
- IC50 (Human lung A459; A459, r-bFGF 0 ng/ml): 119 nM
- IC50 (Human lung A459; A459, r-bFGF 1 ng/ml): 118 nM
- IC50 (Human lung A459; A459, r-bFGF 10 ng/ml): 238 nM
- IC50 (Human lung A459; A459, r-bFGF 50 ng/ml): 285 nM
- IC50 ([1]; r-bFGF 0 ng/ml): 128 nM
- IC50 ([1]; r-bFGF 0.01 ng/ml): 150 nM
- IC50 ([1]; r-bFGF 0.1 ng/ml): 270 nM
- IC50 ([1]; r-bFGF 1 ng/ml): 407 nM
- IC50 (Human breast MCF7; MCF7, r-bFGF 0 ng/ml): 16.9 nM
- IC50 (Human breast MCF7; MCF7, r-bFGF 0.01 ng/ml): 21.3 nM
- IC50 (Human breast MCF7; MCF7, r-bFGF 0.1 ng/ml): 37.6 nM
- IC50 (Human breast MCF7; MCF7, r-bFGF 1 ng/ml): 595 nM
- IC50 (Human colon HT-29; HT-29, 96 h, r-aFGF + r-bFGF 0 ng/ml): 30.2 nM
- IC50 (Human colon HT-29; HT-29, 96 h, r-aFGF + r-bFGF 0.04 ± 1 ng/ml): 29.1 nM
- IC50 (Human colon HT-29; HT-29, 96 h, r-aFGF + r-bFGF 0.08 ± 1 ng/ml): 30 nM
- IC50 (Human colon HT-29; HT-29, 96 h, r-aFGF + r-bFGF 0.16 ± 1 ng/ml): 30.5 nM
- IC50 (Human colon HT-29; HT-29, 96 h, r-aFGF + r-bFGF 0.32 ± 1 ng/ml): 48.1 nM
- IC50 (Human colon HT-29; HT-29, 96 h, r-aFGF + r-bFGF 0.64 ± 1 ng/ml): 72.7 nM
- IC50 (Human colon HT-29; HT-29, 96 h, r-aFGF + r-bFGF 1 ± 1 ng/ml): 131 nM
- IC50 (Human colon HT-29; HT-29, r-aFGF 0 ng/ml): 30.2 nM
- IC50 (Human colon HT-29; HT-29, r-aFGF 1 ng/ml): 32.1 nM
- IC50 (Human colon HT-29; HT-29, r-aFGF 10 ng/ml): 30.3 nM
- IC50 (Human colon HT-29; HT-29, r-aFGF 50 ng/ml): 30 nM
- IC50 (Human colon HT-29; HT-29, r-bFGF 0 ng/ml): 24.1 nM
- IC50 (Human colon HT-29; HT-29, r-bFGF 1 ng/ml): 24.4 nM
- IC50 (Human colon HT-29; HT-29, r-bFGF 10 ng/ml): 24.5 nM
- IC50 (Human colon HT-29; HT-29, r-bFGF 50 ng/ml): 26.1 nM
- IC50 (Human pharynx FaDu; 96 h, r-aFGF + r-bFGF 0 ng/ml): 13.5 nM
- IC50 (Human pharynx FaDu; [5]): 13.5 nM
- IC50 (Human pharynx FaDu; [6]): 14 nM
- IC50 (Human pharynx FaDu; 96 h, r-aFGF + r-bFGF 0.16 ± 1 ng/ml): 13.7 nM
- IC50 (Human pharynx FaDu; [7]): 14.1 nM
- IC50 (Human pharynx FaDu; [8]): 27.5 nM
- IC50 (Human pharynx FaDu; [9]): 54 nM
- IC50 (Human pharynx FaDu; r-aFGF 0 ng/ml): 13.5 nM
- IC50 (Human pharynx FaDu; r-aFGF 1 ng/ml): 13 nM
- IC50 (Human pharynx FaDu; r-aFGF 10 ng/ml): 13.7 nM
- IC50 (Human pharynx FaDu; r-aFGF 50 ng/ml): 14 nM
- IC50 (Human pharynx FaDu; r-bFGF 0 ng/ml): 14.2 nM
- IC50 (Human pharynx FaDu; r-bFGF 1 ng/ml): 13.9 nM
- IC50 (Human pharynx FaDu; r-bFGF 10 ng/ml): 14.1 nM
- IC50 (Human pharynx FaDu; r-bFGF 50 ng/ml): 13.7 nM
- IC50 (Human prostate PC3; 96 h, r-aFGF + r-bFGF 0 ng/ml): 8.2 nM
- IC50 (Human prostate PC3; [5]): 8.5 nM
- IC50 (Human prostate PC3; [6]): 15.2 nM
- IC50 (Human prostate PC3; [7]): 62.2 nM
- IC50 (Human prostate PC3; [8]): 84.8 nM
- IC50 (Human prostate PC3; [9]): 107 nM
- IC50 (Human prostate PC3; 96 h, r-aFGF + r-bFGF): 35.3 nM
- IC50 (Human prostate PC3; r-aFGF 0 ng/ml): 8.2 nM
- IC50 (Human prostate PC3; r-aFGF 1 ng/ml): 8.3 nM
- IC50 (Human prostate PC3; r-aFGF 10 ng/ml): 8.1 nM
- IC50 (Human prostate PC3; r-aFGF 50 ng/ml): 8.4 nM
- IC50 (Human prostate PC3; r-bFGF 0 ng/ml): 8.1 nM
- IC50 (Human prostate PC3; r-bFGF 1 ng/ml): 8.51 nM
- IC50 (Human prostate PC3; r-bFGF 10 ng/ml): 23.8 nM
- IC50 (Human prostate PC3; r-bFGF 50 ng/ml): 50.8 nM
- IC50 (Rat prostate MAT-LyLu; r-bFGF 0 ng/ml): 10.3 nM
- IC50 (Rat prostate MAT-LyLu; r-bFGF 1 ng/ml): 18.3 nM
- IC50 (Rat prostate MAT-LyLu; r-bFGF 10 ng/ml): 540 nM
- IC50 (Rat prostate MAT-LyLu; r-bFGF 50 ng/ml): 238 nM
- IC50 ([2]; Monolayers (passage 0)): 77 ± 2.9 nM
- IC50 ([2]; Monolayers (passage 1)): 31.7 ± 8.9 nM
- IC50 ([2]; Monolayers (passage 2)): 16.6 ± 1 nM
- IC50 ([2]; Monolayers (passage 3)): 8 ± 0.5 nM
- IC50 ([3]; Monolayers (passage 0)): 31 ± 2.3 nM
- IC50 ([3]; Monolayers (passage 1)): 17.9 ± 1.2 nM
- IC50 ([3]; Monolayers (passage 2)): 11 ± 0.4 nM
- IC50 ([3]; Monolayers (passage 3)): 7.8 ± 0.5 nM
- IC50 [4]: 18 ± 11 nM
Structure (SMILES): COc1cccc2c1C(=O)c1c(O)c3c(c(O)c1C2=O)C[C@@](O)(C(=O)CO)C[C@@H]3O[C@H]1C[C@H](N)[C@H](O)[C@H](C)O1 [Doxorubicin]
